Literature values as cited in patent publication US20250275556A1, “N[…] METHOD FOR PRODUCING THE SAME” (Kalium Agri, Inc., priority 2024, published 2025).

Details: magnesium supplement in cattle, in optimal situations

In the case of `[O]=[Mg]` [magnesium oxide], the digestible is given as 19%.
